Measured values as given in article PMC4626215, “Esculentin-2CHa-Related Peptides Modulate Islet Cell Function and Improve Glucose Tolerance in Mice with Diet-Induced Obesity and Insulin Resistance” (PLoS ONE, 2015).
Bridges are numbered along the chain shown (N, C = ends). Where no end group is shown, it is not given here.

Tests used:
BRIN-BD11 cells [1] = assay: Membrane potential, FLIPR membrane assay kit; format: cell-based, rat; conditions: for Membrane potential (AUC, x 10^3 RFU): 1 μM peptide, 5 min, mean ± SEM, n = 8
Method: (§1) Effects of esculentin-2CHa (1 μM) and its analogues on membrane potential and [Ca^2+]i in BRIN-BD11 cells over a period of 5 min were assessed using commercially available FLIPR membrane or calcium assay kit (Molecular Devices, USA) as previously described. Data were captured using a Flexstation 3 microplate reader equipped with automatic fluid transfer unit (Molecular Devices, USA).

[2] = system: islets from NIH Swiss mice; assay: In vitro insulin release from isolated mouse islets; format: cell-based; conditions: 16.7 mM glucose; for Stimulation of insulin release from islets, fold of basal: 1 μM, 1 h; for Mouse islets (Threshold concentration): insulin release, 1 h incubation, n = 8
Method: (§2) In vitro insulin-releasing effects of esculentin-2CHa and its analogues were assessed using BRIN-BD11 rat clonal β-cells and mouse islets. In the first set of experiments, BRIN-BD11 cells were incubated with the peptides in the concentration range (1 pM– 3 μM) in Krebs-Ringer bicarbonate buffer containing 5.6 mM glucose for 20 min at 37°C as previously described [15–17]. Insulin-releasing effects were also assessed using buffer supplemented with 1.4 and 16.7mm glucose concentrations and with established modulators of insulin release as previously described [15–17]. In a second set of experiments, islets from NIH Swiss mice, isolated by collagenase digestion [18, 19], were incubated with a range of concentrations of esculentin-2CHa or its analogues (0.1 nM– 1 μM) for 1 h in Krebs-Ringer bicarbonate (KRB) buffer supplemented with 1.4, 5.6 or 16.7 mM glucose. Following test incubations, aliquots of buffer were retrieved and stored at -20°C for measurement of insulin by radioimmunoassay [20].

high fat fed mice = assay: Acute in vivo glucose tolerance and insulin release; design: species or system mouse; conditions: for Plasma glucose (AUC) / Plasma insulin (AUC): ip glucose 18 mmol/kg with peptide 75 nmol/kg, AUC 0-60 min, mean ± SEM, n = 8
Method: Male National Institutes of Health (NIH) Swiss mice (Harlan Ltd, UK) were housed separately in an air-conditioned room (22 ± 2°C) with relative humidity of 51 ± 5% and a 12-hour light: 12-hour dark cycle and maintained on a high fat diet containing 45% fat, 20% protein and 35% carbohydrate (total energy 19.5 kJ/g, Dietex International Ltd, Witham, UK) for 120 days. Mice maintained on standard rodent diet containing 10% fat, 30% protein and 60% carbohydrates (total energy 12.99 kJ/g) were used as controls. Both groups of animals were allowed food and water ad libitum. All animal experiments were carried out in accordance with the UK Animals (Scientific Procedures) Act 1986 and EU Directive 2010/63EU for animal experiments. The study was approved by University of Ulster Research Ethics Committee.
For acute in vivo studies, overnight fasted, high fat fed mice (n = 8) received an intraperitoneal injection of glucose alone (18 mmol/kg body weight) or in combination with esculentin-2CHa or its analogues (75 nmol/kg body weight). This peptide dose was selected on the basis of a pilot study that examined acute effects of different doses of esculentin-2CHa on glucose tolerance in lean mice. Blood samples were collected as described previously before injection and at times indicated in the Figures for the measurement of plasma glucose and insulin concentrations.
Pancreatic tissues were homogenized in 20 mM Tris-HCl, 150 mM NaCl, 1 mM EDTA, 1 mM EGTA and 0.5% Triton X 100; pH 7.5 as previously described. Blood samples (approximately 150 μl), collected from the cut tip of the tail vein of unanesthetized mice at intervals indicated in the Figures were used for blood glucose measurements and determination of plasma insulin as previously described. Blood glucose was measured using a hand-held Ascencia Contour meter (Bayer Healthcare, UK). Plasma and pancreatic insulin were determined by radioimmunoassay. Plasma and pancreatic glucagon contents were determined by ELISA using commercially available kit (Millipore, MA, USA). Plasma creatinine, alanine transaminase (ALT), aspartic acid transaminase (AST) and alkaline phosphatase (ALP) were measured using commercially available kits (Randox Laboratories, UK) as indicators of renal and liver function. Plasma triglyceride and cholesterol concentrations were measured using an automated clinical chemistry analyser (I-lab 650, and reagents purchased from Instrumentation Laboratory (Warrington, UK). The assay kit for cholesterol was obtained from Randox Laboratories (Antrim, UK). Estimation of LDL cholesterol concentrations was achieved using the Friedewald equation as described previously.

BRIN-BD11 cells [3] = conditions: 3 μM peptide (highest concentration); mean ± SEM, n = 8
Method: In vitro insulin-releasing effects of esculentin-2CHa and its analogues were assessed using BRIN-BD11 rat clonal β-cells and mouse islets. In the first set of experiments, BRIN-BD11 cells were incubated with the peptides in the concentration range (1 pM– 3 μM) in Krebs-Ringer bicarbonate buffer containing 5.6 mM glucose for 20 min at 37°C as previously described. Insulin-releasing effects were also assessed using buffer supplemented with 1.4 and 16.7mm glucose concentrations and with established modulators of insulin release as previously described. In a second set of experiments, islets from NIH Swiss mice, isolated by collagenase digestion, were incubated with a range of concentrations of esculentin-2CHa or its analogues (0.1 nM– 1 μM) for 1 h in Krebs-Ringer bicarbonate (KRB) buffer supplemented with 1.4, 5.6 or 16.7 mM glucose. Following test incubations, aliquots of buffer were retrieved and stored at -20°C for measurement of insulin by radioimmunoassay. In the experiments with BRIN-BD11 cells, the release of lactate dehydrogenase (LDH) was measured as an indicator of the integrity of the plasma membrane using commercially available CytoTox 96 non-radioactive cytotoxicity assay kit (Promega, Madison, WI, USA) according to the manufacturer’s recommended protocol.

[4] = system: BRIN-BD11 rat clonal β-cells; assay: In vitro insulin release from BRIN-BD11 cells; format: cell-based; conditions: 5.6 mM glucose; for BRIN-BD11 cells (Threshold concentration): minimum concentration producing a significant increase in rate of insulin release, 37°C
Method: as §2

BRIN-BD11 cells [5] = assay: Intracellular calcium ([Ca2+]i), FLIPR calcium assay kit; format: cell-based, rat; conditions: for Intracellular Ca2+ (AUC, x 10^2 RFU): 1 μM peptide, 5 min, mean ± SEM, n = 8
Method: as §1

[6] = peptide 75 nmol/kg ip with glucose 18 mmol/kg

| Molecule | Increase of membrane potential (BRIN-BD11 cells [1]; 30 mM) | Stimulation of insulin release from islets, fold of basal [2] | Plasma glucose (AUC) (high fat fed mice) | Plasma insulin (AUC) (high fat fed mice) | Decrease of plasma glucose AUC versus glucose alone (high fat fed mice; [6]) | Stimulation of insulin response relative to that with esculentin-2CHa (high fat fed mice; [6]) | LDH release (% of control) (BRIN-BD11 cells [3]) | Mouse islets (Threshold concentration) [2] | Stimulatory effect on insulin release at 3 μM compared with native peptide ([4]; 3 μM) | BRIN-BD11 cells (Threshold concentration) ([4]; 20 min, n = 8) | Intracellular Ca2+ (AUC, x 10^2 RFU) (BRIN-BD11 cells [5]) | Membrane potential (AUC, x 10^3 RFU) (BRIN-BD11 cells [1]) | Increase in integrated plasma insulin response versus glucose alone (high fat fed mice; [6]) | Insulin-secretory response, fold of basal ([4]; 3 μM peptide, 20 min) | Increase of insulin secretion, fold of basal ([4]; 10 mM, 20 min, n = 8) | Increase of intracellular Ca2+ (BRIN-BD11 cells [5]; 10 mM) |
| --- | --- | --- | --- | --- | --- | --- | --- | --- | --- | --- | --- | --- | --- | --- | --- | --- |
| [Cl-].[K+] [KCl, reference compound] | 5.2 fold | – | – | – | – | – | – | – | – | – | – | – | – | – | – | – |
| GLP-1: incretin hormone used as positive control for islet insulin release [reference compound] | – | 2.4 fold | – | – | – | – | – | – | – | – | – | – | – | – | – | – |
| GFSSIFRGVAKFASKGLGKDLAKLGVDLVAKKISKQC [[C31K]Esculentin-2CHa, substituted analogue of esculentin-2CHa with increased cationicity] | – | 3.3 fold | 410.72 ± 29.25 mmol·min/L | 240.32±31.04 ^,ΔΔΔ ng/ml.min | 40% | 2.4 fold | 100.2±2.8 % of control | 0.1 nM | greater | 10 pM | 6.32±0.72 x 10^2 RFU | 7.92±0.14 x 10^3 RFU | – | – | – | – |
| GFSSIFRGVAKFASKGLGKDLAKKGVDLVACKISKQC (disulfide 31-37 (inferred)) [[L24K]Esculentin-2CHa, substituted analogue of esculentin-2CHa with increased cationicity] | – | 2.3 fold | 662.25±32.14^ΔΔ mmol/l.min | 129.89±11.02^Δ ng/ml.min | – | – | 101.3±3.1 % of control | 10 nM | – | 10 pM | 6.28±0.62 x 10^2 RFU | 7.87±0.19 x 10^3 RFU | – | – | – | – |
| GFSSIFRGVAKFASKGLGKDLAKLGVDLVASKISKQS [[C31S,C37S]Esculentin-2CHa, analogue with Cys31 and Cys37 replaced by serine] | – | 2.6 fold | 618.65±86.0^ΔΔ mmol/l.min | 122.74±28.65^Δ ng/ml.min | – | – | 104.3±3.1 % of control | 1 nM | – | 10 pM | 6.55±0.36 x 10^2 RFU | 7.96±0.24 x 10^3 RFU | – | – | – | – |
| GFSSIFRGVAKFASKGLGKDLAKLGVDLVACKISKQC (disulfide 31-37 (inferred)) [Esculentin-2CHa, frog skin host-defense peptide first isolated from Lithobates chiricahuensis; synthetic] | – | 2.7 fold | 463.99 ± 46.95 mmol·min/L | 165.05 ± 16.89 ng·min/mL | 33% | – | 102.7±1.1 % of control | 10 nM | – | – | 6.44±0.47 x 10^2 RFU | 8.01±0.28 x 10^3 RFU | 48% | 10.3 fold | – | – |
| GFSSIFRGVAKFASKGLGKKLAKLGVKLVACKISKQC (disulfide 31-37 (inferred)) [[D20K, D27K]Esculentin-2CHa, analogue with Asp20 and Asp27 replaced by L-Lysine] | – | 1.7 fold | 667.78±60.23^ΔΔ mmol/l.min | 122.96±16.76^Δ ng/ml.min | – | – | 102.5±2.6 % of control | 10 nM | – | 100 pM | 6.10±0.46 x 10^2 RFU | 7.85±0.32 x 10^3 RFU | – | – | – | – |
| C[C@H](N)C(=O)O [alanine, reference compound] | – | – | – | – | – | – | – | – | – | – | – | – | – | – | 7.3 fold | 4.6 fold |
| GFSSIFRGVAKFASKGLGKDKAKLGVDLVACKISKQC (disulfide 31-37 (inferred)) [[L21K]Esculentin-2CHa, substituted analogue of esculentin-2CHa with increased cationicity] | – | 2.6 fold | 598.68±35.23^ΔΔ mmol/l.min | 131.12±14.25^Δ ng/ml.min | – | – | 100.6±2.0 % of control | 10 nM | – | 10 pM | 6.14±0.41 x 10^2 RFU | 7.78±0.31 x 10^3 RFU | – | – | – | – |
